Experimental data taken from a melting point compilation (Tetko et al.).

SMILES	melting point
Cc1cc2nsnc2cc1C	89 to 90 °C
CC(=O)N1N=C(c2ccc3ccccc3c2)C[C@@H]1c1ccc(Cl)c(Cl)c1	242 °C
c1cc(OCC2CO2)cc(OCC2CO2)c1 (stereo unspecified)	42.5 °C
OCC(CO)(CO)CBr	76 °C
OCc1cccc2cccc(CO)c12	155 to 158 °C
C=CCOc1c(Br)cc(C(C)(C)c2cc(Br)c(OCC=C)c(Br)c2)cc1Br	119 °C
Nc1cc(F)c(C(F)(F)F)c(F)c1	66 °C
O=C(O)c1ccc(C(=O)O)nc1	254 °C
Nc1ccc(Br)c(Cl)c1	74 °C
O=C(O)C#Cc1cccc(C#CC(=O)O)c1	209 °C
CN(C)C1=NC(=O)C(c2ccccc2)O1 (stereo unspecified)	133 °C
Clc1nccc2occc12	41 to 42 °C
OCC1CCN(c2ncnc3ccsc23)CC1	126 to 128 °C
O=C(O)c1ccccc1-n1cccc1	104 °C
CC(C)C1C(=O)NC(=O)NC1=O	214 °C
O=C(C=Cc1ccccc1)c1cccs1	76 to 78 °C
CC1(c2ccccc2)CC(C(=NNC(O)=S)c2cc3ccccc3o2)C1 (stereo unspecified)	191 to 192 °C
Nc1c(C(=O)O)sc2nc(-c3ccccc3)cc(C(F)(F)F)c12	159 to 161 °C
O=C(O)c1ccc2c(c1)OCCOCCOCCOCCOCCO2	121 to 126 °C
O=C(O)c1ccc(O)c(F)c1F	207 °C
Cc1cc(C(C)(C)C)cc(C(C)(C)C)c1O	51 °C
O=C(c1ccc2c3c(cccc13)CC2)C(Br)c1ccccc1 (stereo unspecified)	118 °C
CSc1ccccc1/N=C/c1cc(C(C)(C)C)cc(C(C)(C)C)c1O	135 °C
O=C(Oc1ccc(OC(=O)c2ccccc2)cc1)c1ccccc1	115 °C
N#CCCO	-46 °C

SMILES	melting point
COc1cc(C=O)cc(OC)c1OC	75 °C
OC1OCC(OCc2ccccc2)C(OCc2ccccc2)C1OCc1ccccc1 (stereo unspecified)	78 °C
Sc1nnc(S)s1	161 to 165 °C
O=C(O)c1ccc(Cl)cc1Br	159 to 161 °C
NNC(=O)Cc1nc(-c2cnccn2)no1	184 to 186 °C
Cc1nc(C(F)(F)F)c(C(=O)Nc2c(Br)cc(OC(F)(F)F)cc2Br)s1	178 °C
N#Cc1c[nH]cc1-c1cccc(Cl)c1Cl	150 °C
Cn1nnc2cc(CBr)ccc21	120 °C
N#Cc1ccc(C(F)(F)F)nc1	39 °C
Cc1cc(C(=O)O)c(C)n1C1CC1	178 to 185 °C
O=C1N(c2ccccc2)N(c2ccccc2/N=N\c2ccccc2)C1(c1ccccc1)c1ccccc1	163 °C
CC(C)=CC1C(C(=O)OCN2C(=O)C3=C(CCCC3)C2=O)C1(C)C (stereo unspecified)	69 °C
Oc1cc(F)c(F)cc1F	41 °C
Nc1ncnc2c1ncn2C1OC(COP(=O)(O)OP(=O)(O)OP(=O)(O)O)C(O)C1O (stereo unspecified)	176 °C
CCCCCCCCCCCCCCCCCCCCCCCCO	75 to 77 °C
Nc1ccc2c(c1)C(=O)c1ccccc1-2	152 to 157 °C
Nc1cc(Cl)c(Cl)cc1N	162 to 163 °C
c1ccc2sc(SNC3CCCCC3)nc2c1	98 °C
Oc1ccc(Cl)c2cccnc12	130 °C
CCC1CN2CCc3cc(OC)c(OC)cc3C2CC1CC1NCCc2cc(O)c(OC)cc21 (stereo unspecified)	116 °C
O=C(O)C1=CCCCC1	38 °C
CC(C)(C)c1ccc(-c2nnc(-c3ccc(-c4ccccc4)cc3)o2)cc1	137 °C
CC1=Cc2ccccc2C1	80 °C
Nc1c([N+](=O)[O-])sc2ccccc12	220 to 221 °C
COc1ccc(C)cc1N	53 °C

SMILES	melting point
c1ccc(C(c2ccccc2)(c2ccccc2)N2CCOCC2)cc1	175 °C
OCCn1ccnc1	39 °C
O=[N+]([O-])c1ccc(N=Nc2ccccc2)cc1	133 °C
Clc1cccc(Cl)c1N=C1NCCN1	130 °C
FC(F)(F)C(F)(F)C(F)(F)C(F)(F)C(F)(F)C(F)(F)I	-45 °C
COc1ccccc1Oc1ccc(C(F)(F)F)cc1N	28 °C
CCNC(=S)Nc1ccccc1	102 to 104 °C
O=C(c1ccc(O)cc1)c1ccc(O)cc1	223 °C
CC(C)(C)c1csc(-c2ccc(C=O)cc2)n1	106 to 107 °C
CCC(C)(C#N)N=NC(C)(C#N)CC (stereo unspecified)	50 °C
Nc1ccc(F)c(C(=O)O)c1	191 °C
NCCc1ccc(-c2ccccc2)cc1	53 to 55 °C
C(#Cc1ccc(CCc2ccccc2)cc1)c1ccccc1	105 °C
NC(=S)c1ccccc1Cl	68 to 70 °C
c1ccc2c(P(c3cccc4ccccc34)c3cccc4ccccc34)cccc2c1	265 to 268 °C
O=[N+]([O-])c1ccc(F)c2nonc12	52 °C
Clc1ccc(Br)s1	-20 °C
Cc1ccc(C(=O)O)cc1F	170 to 175 °C
O=C(O)c1cnn(-c2ccccc2)c1C(F)(F)F	139 to 141 °C
COc1ccc(Br)cc1C=CC(=O)O	224 to 229 °C
Nc1nc(F)cc(C(F)(F)F)c1F	67 °C
OCCOc1ccccc1OCCO	78 to 82 °C
O=C(O)C=Cc1cccc(C(F)(F)F)c1	136 °C
CCCCCCCCC(=O)NCc1ccc(O)c(OC)c1	57 °C

Results, then the compound that gave them:

melting point	SMILES
137 to 142 °C	CS(=O)(=O)c1ccc(C#N)cc1
107 °C	O=C(OCc1ccccc1Br)ON1C(=O)CCC1=O
159 °C	COc1cc([N+](=O)[O-])c2ncccc2c1
17 °C	CC(C)CS(=O)(=O)CC(C)C
28.5 to 31.5 °C	CCCCCCCCCCCCOS(=O)(=O)c1ccc(C)cc1
133 to 134 °C	Cc1ccc(N)c(C(=O)NN)c1
187 to 188 °C	Cc1ccccc1C(=O)Cc1ccc(C(N)=O)cc1
210 °C	Cc1c(C)c(C)c(C(=O)O)c(C)c1C
112 to 116 °C	CC1=NC2(CCCCC2)[N+]([O-])=C1
53.5 °C	CCOC(=O)C1(S(=O)(=O)c2ccc(C)cc2)CCC1
135 to 136 °C	COC(=O)c1cccc2c1-c1ccccc1C2=O
265 °C	O=C(O)c1cc2cccc([N+](=O)[O-])c2[nH]1
30 °C	O=S(=O)(Cl)c1ccccc1F
113 °C	COC(=O)[C@H](CC(=O)O)Cc1cccc2ccccc12
92 to 94 °C	O=C(CCl)Nc1ccccc1C(F)(F)F
-3 °C	CCCCCCc1ccc2ccccc2c1
100 to 103 °C	Cc1onc(-c2c(Cl)cccc2Cl)c1C=O
238 °C	CC(=O)C1=C(C)NC(=O)NC1c1ccccc1 (stereo unspecified)
75 to 76 °C	Cc1cc(C)c(CC(O)c2cc3ccccc3o2)c(C)c1 (stereo unspecified)

melting point	SMILES
260 °C	C=CC=C(C=C1C(=O)NN=C1c1c(O)c2ccccc2n(C)c1=O)C(Cl)=CC
89 to 91 °C	COC(=O)c1cc(Br)cc(C(=O)OC)c1
123 °C	Cn1c(=O)on(-c2ccc(Cl)c(Cl)c2)c1=O
71.5 °C	C=C(C)c1cc(=O)c(O)ccc1CC=C(C)C
60 °C	CCC(CO)(CO)CO
194 °C	COc1ccc(CC(=O)C(=O)O)cc1
157 °C	CCC(C(=O)O)C1(O)CCC(c2ccccc2)CC1 (stereo unspecified)
163 °C	Cc1ccc(C)c2c1C(=O)N(C)C2O (stereo unspecified)
56 °C	Cc1cccc2c1CC2=O
-4 °C	CC(C)(C)CC(C)(C)c1ccc(OCCO)cc1
190 °C	CS(=O)(=O)c1nn(-c2ccccc2)c(N)c1C#N
173 °C	COC(=O)C1=C(C)NC(C)=C(C(=O)OC)C1c1ccccc1[N+](=O)[O-]
254 °C	CCn1cc(C(=O)O)c(=O)c2cnc(N3CCNCC3)nc21
81 °C	CCC(Oc1ccccc1)C(=O)O (stereo unspecified)
97.5 °C	CCC1(CC)COC(=O)NC1=O
148 to 150 °C	CC1(C)CC(CN2C(=O)C=CC2=O)C(C)(C)N1O (stereo unspecified)
104 °C	COC(=O)C1(S(=O)(=O)c2ccc(Br)cc2)CCCC1
92 °C	O=C(CCCN1CCN(c2ccccn2)CC1)c1ccc(F)cc1
83 to 85 °C	CC(=O)/C(=N\Nc1cc(Cl)ccc1Cl)C(=O)C(F)(F)F

melting point	SMILES
72 °C	O=COc1ccc([N+](=O)[O-])cc1
185 to 186 °C	O=C(CCl)Nc1ccc([N+](=O)[O-])cc1
181 to 185 °C	O=C(O)CC1(CC(=O)O)CCCCC1
-20 °C	CCCCOC(=O)CC(O)(CC(=O)OCCCC)C(=O)OCCCC
157 °C	CC(=O)/N=c1\sc(C(C)=O)nn1-c1ccc(F)cc1
139 °C	O=C(O)COc1ccc(Cl)c(Cl)c1
84 to 86 °C	CN(C(=O)CCl)c1c2c(nn1C)CCCC2
139 to 141 °C	CCOC(=O)c1sc(SCc2ccccc2)c2c1CCCC2=O
107 °C	CC(=O)OCOC(=O)C1N2C(=O)C(NC(=O)Cc3ccccc3)C2SC1(C)C (stereo unspecified)
76 °C	Cc1cccc(N2CC(CO)OC2=O)c1 (stereo unspecified)
179 °C	N#CC1=C(C#N)C(=O)C(NCCCc2ccccc2)=C(Cl)C1=O
164 °C	CC1(C)C(=O)N(Br)C(=O)N1Cl
204 °C	O=C(O)c1ccc(Br)c([N+](=O)[O-])c1
171 °C	O=C(O)c1cc(Br)c(Br)o1
55 °C	C[Si](C)(C)c1cnc([Si](C)(C)C)s1
216 °C	NC(=O)N1c2ccccc2CC(=O)c2ccccc21
92 °C	CNCCCC12CCC(c3ccccc31)c1ccccc12
357 °C	Cn1cnc2c1c(=O)[nH]c(=O)n2C
-123 °C	CCCC(C)C(O)CC (stereo unspecified)
